The record followed here is a melting point compilation (Tetko et al.).

As a reminder, the melting point is the temperature of the solid-liquid transition.

Compound `CC(=O)Nc1ccc(Br)cc1C(=O)O` registered a melting point of 223 °C.

On to `COc1nn(-c2ccccc2)cc1/C=C/C=O`, for which the melting point fell in the range of 131 to 133 °C.

`Cc1nc(-c2ccccn2)nc(Cl)c1Cl` registered a melting point of 127 to 129 °C.

Compound `C/C(=N\c1cccc(C(=O)O)c1)c1c(O)c2ccccc2n(-c2ccccc2)c1=O` registered a melting point of 242 to 243 °C.

Consider `CCOc1cccc(-c2ccccc2)c1`, for which the melting point was 35 °C.

The compound `CN(C)c1ccc(/C=N/n2c(S)nnc2C(F)(F)F)cc1` had a melting point of 200 °C.

Take `O=C(O)CC(CC(=O)O)c1ccc(C(F)(F)F)cc1`: the melting point was in the range of 166 to 168 °C.

`Clc1ccc2c(c1)Cc1cc(Cl)ccc1-2` came in with a melting point of 128 °C.

For the compound `O=C(O)c1ccc(-c2ccco2)s1`, the melting point lay within 187 to 188 °C.

In turn, `O=Cc1cnc(N2CCCCC2)s1` displayed a melting point of 49 °C.

Compound `Cc1c(C)c2c(c(C)c1O)CCC(C)(COc1ccc(CC3SC(=O)NC3=O)cc1)O2` (centres undefined) gave a melting point of 185 °C.

As for `CN(C)c1ccc(C=C2C=C(c3ccccc3)OC(c3ccccc3)=C2)cc1`, the melting point stood at 181 °C.

Compound `CC(C)=CCC(C#N)(CC=C(C)C)C(=O)O` registered a melting point of 70 to 71 °C.

`CC(=O)OC1CCC2(C)C(CCC3C4CCC(=NNS(=O)(=O)c5ccc(C)cc5)C4(C)CCC32)C1` (centres undefined) displayed a melting point of 222 °C.

`COc1ccc(CCNc2ccccc2N)cc1OC` had a melting point of 78 to 80 °C.

In turn, `CCCNC(C)C(=O)Nc1ccccc1C` (centres undefined) had a melting point of 37.5 °C.

`O=[N+]([O-])c1c2c(c([N+](=O)[O-])c3c1CCCN3)NCCC2` returned a melting point of 187 °C.

Compound `CNC(c1cccc(C(F)(F)F)c1)C(NC)c1cccc(C(F)(F)F)c1` (centres undefined) gave a melting point of 113 to 115 °C.

Take `CCCCCCC(C)CCCCCC`: the melting point is -37.2 °C.

For `COC(=O)C(C)O` (centres undefined), the melting point was -66 °C.

For the compound `CC(C)(C)C(=O)C(Oc1ccc(Cl)cc1)n1cncn1` (centres undefined), the melting point amounted to 82.3 °C.

Compound `OC(CCl)c1ccc(Cl)cc1Cl` (centres undefined) returned a melting point of 48 to 52 °C.

In turn, `CC(=O)OC[C@H]1O[C@@H](OCc2ccccc2)[C@H](OC(C)=O)[C@@H](OC(C)=O)[C@@H]1OC(C)=O` registered a melting point of 96 to 100 °C.

Turning to `C[C@]12C=C[C@H](O1)[C@H]1C(=O)OC(=O)[C@H]12`, the melting point is 69 to 70 °C.

For `COc1cc(C(C)=O)cc(OC)c1OC`, the melting point amounted to 81 °C.

In the case of `CC(c1cc2ccccc2s1)N(O)C(N)=O` (centres undefined), the melting point came out at 157 °C.

On to `ON=C1CCCc2nonc21`, for which the melting point was 166 to 168 °C.

Compound `ClCC(Cl)(Cl)C(Cl)(Cl)Cl` yielded a melting point of 26 °C.

Turning to `Cc1ccc(S(=O)(=O)OC(C(F)(F)F)C(F)(F)F)cc1`, the melting point lay in the range of 39 to 40 °C.

Regarding `Cc1ccc(C(c2ccc(C)o2)c2cc(Br)cc(Br)c2O)o1`, the melting point stood at 88 °C.

For `CC(C=CC1=C(C)CCCC1(C)C)=CC=CC(C)=CC(=O)O`, the melting point stood at 185 °C.

As for `O=C1NC(=O)[C@@H]2CC=CC[C@H]12`, the melting point lay in the range of 131 to 138 °C.

The compound `c1ccc2c(c1)ccc1c3ccccc3sc21` showed a melting point of 189 °C.

In the case of `C/C(CCc1oc2ccc(C)cc2c1-c1ccc(C)o1)=N/O`, the melting point was 103 to 104 °C.

As to `O=C(O)c1ccc(OC2CCOCC2)nc1`, the melting point fell in the range of 168 to 170 °C.

Consider `CC1CCCC1C` (centres undefined), for which the melting point was -54 °C.

Compound `CC(CCC(=O)NCC(=O)O)C1CCC2C3C(O)CC4CC(O)CCC4(C)C3CC(O)C12C` (centres undefined) came in with a melting point of 166 °C.

`CCN(C(=O)Oc1cccc(NC(=O)OC(C)C)c1)c1ccccc1` yielded a melting point of 110 °C.

With `Cc1cc(F)ccc1[N+](=O)[O-]`, the melting point amounted to 20 °C.

For `CCCCCCCCC(=O)CCCCCC`, the melting point worked out at 31 °C.

Turning to `Nc1ccc(-c2cccnc2)cc1`, the melting point was in the range of 115 to 118 °C.

Take `CCCCCCCCCCCCOC(C)=O`: the melting point was 1.3 °C.

Regarding `CN(C)CCN`, the melting point is -70 °C.

Compound `C=CCN(CC=C)C(SC)=C(C#N)C(N)=O` came in with a melting point of 110 °C.

On to `N#CCCc1ccc(O)cc1`, for which the melting point came out at 56 °C.

Regarding `FC1(F)C(F)(F)C(F)(F)C2(F)C(F)(F)C(F)(F)C(F)(F)C(F)(F)C2(F)C1(F)F` (centres undefined), the melting point was -10 °C.

`COCC(=O)N(c1c(C)cccc1C)C(C)C(=O)OC` (centres undefined) displayed a melting point of 71 °C.

Compound `CC1(C)C2CCC1(C)C(O)/C2=C\CC(=O)O` (centres undefined) returned a melting point of 51 to 52 °C.

On to `COc1cc(C=O)ccc1OC1OC(CO)C(O)C(O)C1O` (centres undefined), for which the melting point was found to be 189 °C.

Compound `O=[N+]([O-])c1cc[nH]n1` displayed a melting point of 173 to 175 °C.

The compound `CC(CCc1ccccc1)NCC(O)c1ccc(O)c(C(N)=O)c1` (centres undefined) registered a melting point of 190 °C.

For the compound `CCC(=O)Oc1ccc(C(CC)=C(CC)c2ccc(OC(=O)CC)cc2)cc1`, the melting point was determined as 104 °C.

The compound `O=C(NCO)NS(=O)(=O)c1ccc(NC(=O)c2ccccc2C(=O)O)cc1` displayed a melting point of 162 °C.

Take `CCOP(=S)(OCC)SC1OCCOC1SP(=S)(OCC)OCC` (centres undefined): the melting point is -2 °C.

`Cc1nc(C=O)cs1` returned a melting point of 56 to 58 °C.

As to `C/C(=N\O)c1ccc2c(c1)CCCC2`, the melting point was 104 to 106 °C.

In turn, `Oc1ccccc1C=NC1CCCCC1N=Cc1ccccc1O` (centres undefined) had a melting point of 118 °C.

In the case of `C=CCc1c(O)cccc1C=O`, the melting point was in the range of 104 to 106 °C.

The compound `O=C(O)Cc1ccc(I)cc1` registered a melting point of 138 °C.

In the case of `CSC(S)=Nc1ccccc1C`, the melting point was in the range of 151 to 153 °C.

In turn, `Cc1cc(-c2cc(C)c(N)c(C)c2)cc(C)c1N` gave a melting point of 170 °C.

In turn, `CSc1sc(C(=O)O)c(-c2cccc(C(F)(F)F)c2)c1C#N` showed a melting point of 232 to 234 °C.

As to `O=C(O)C=Cc1ccc(Sc2ccc(Br)cc2)c([N+](=O)[O-])c1`, the melting point lay within 232 to 234 °C.

With `O=C(O)CCSc1ccc(Br)cc1`, the melting point turned out to be 111 °C.

For the compound `O=Cc1ccc(Br)c(Br)c1`, the melting point stood at 71 °C.

`O=C(O)c1ccc2c(c1)C(=O)c1cc(C(=O)O)ccc1-2` displayed a melting point of 407 °C.

For the compound `O=C(C1=NOC2C(=O)N(c3cccc4ccccc34)C(=O)C12)c1cccs1` (centres undefined), the melting point turned out to be 80 °C.

Take `COc1ccc2c(c1)CC2C#N` (centres undefined): the melting point was 48 to 56 °C.

`Nc1cccc(S(=O)(=O)N2CCOCC2)c1`: the melting point fell in the range of 132 to 135 °C.

With `O=C1C(C(Br)C2(Br)C(=O)N(c3ccccc3)N=C2c2ccc([N+](=O)[O-])cc2)C(c2ccc([N+](=O)[O-])cc2)=NN1c1ccccc1` (centres undefined), the melting point lay in the range of 308 to 310 °C.

For `Cn1c(/C(C#N)=N/Nc2ccc(Cl)cc2Cl)nc2ccccc21`, the melting point turned out to be 160 °C.

In turn, `O=C(O)C1Cc2ccccc2N1C(=O)OCc1ccccc1` (centres undefined) returned a melting point of 103 to 105 °C.

Take `O=C(O)c1sccc1C1OCCO1`: the melting point was in the range of 142 to 144 °C.

For the compound `C=CCN(CC=C)c1c(C)cc(OC(=O)NC)cc1C`, the melting point was determined as 67 °C.

Compound `Cc1cc(C)cc(C(=O)N(NC(=O)c2ccccc2)C(C)(C)C)c1` showed a melting point of 206 °C.

`Cc1ccc(C(c2ccc(C)o2)c2ccccc2C#N)o1` had a melting point of 87 °C.

In the case of `N#Cc1ccc(S(=O)(=O)Cl)c(Cl)c1`, the melting point amounted to 103 °C.

`O=C(c1ccc(F)cc1)c1ccccc1F` yielded a melting point of 22 to 24 °C.

The compound `OCCOc1cccc2ccccc12` showed a melting point of 45 °C.

Turning to `CC(=O)c1nc2ccccc2s1`, the melting point lay in the range of 109 to 112 °C.

`NC(=O)C=CC(F)(F)F` registered a melting point of 147 to 150 °C.

`Cc1c(CCl)cccc1[N+](=O)[O-]` came in with a melting point of 42 to 47 °C.

Regarding `CCOC(=O)COc1cc(Cl)c(Cl)cc1Cl`, the melting point is 64 °C.

In turn, `O=C1Nc2ccccc2C1=Nn1c(S)nnc1C(F)(F)F` registered a melting point of 300 °C.

In turn, `N#Cc1ccc2cccc(O)c2n1` yielded a melting point of 131 to 136 °C.

Compound `O=C(O)c1ccc(N2CCOCC2)s1` yielded a melting point of 135 to 137 °C.

`Nc1cc(F)c(F)c(Br)c1` returned a melting point of 68 °C.

Regarding `CC(=O)C1CCC2C3CCC4=CC(=O)CCC4(C)C3C(=O)CC12C` (centres undefined), the melting point amounted to 172 °C.

In turn, `CCNc1nc(NC(C)C)nc(SC)n1` gave a melting point of 88 °C.

The compound `C[C@H](Cl)C(=O)O` yielded a melting point of 4 °C.

`FCOC(C(F)(F)F)C(F)(F)F`: the melting point was < 25 °C.

On to `C[Si](C)(Cl)O[Si](C)(C)O[Si](C)(C)Cl`, for which the melting point is -53 °C.

The compound `Oc1ccc(Cl)c2c1CCC2` displayed a melting point of 92 °C.

The compound `O=C(O)c1cccnc1C(=O)O` yielded a melting point of 228 °C.

`Cc1nc2ccccc2[nH]c(=O)c1=NNc1ccc(Cl)cc1` yielded a melting point of 175 °C.

The compound `CCCCCCCCCC(=O)OC1CCC2C3CCC4=CC(=O)CCC4C3CCC12C` (centres undefined) had a melting point of 118 °C.

With `O=[N+]([O-])c1ccc(Oc2ccccc2)cc1`, the melting point was 58 °C.

`CCCCCCCC(=O)Oc1c(I)cc(C#N)cc1I` came in with a melting point of 59.5 °C.

`Cc1ccc(N)c(C)c1` returned a melting point of 16 °C.

Regarding `O=C(O)c1cccc(N2CCCC2)c1`, the melting point lay in the range of 215 to 217 °C.

The compound `CC(C)(O)C12CC3CC(CC(C3)C1)C2` had a melting point of 75 °C.

Take `CC(=O)c1cnc2ccccc2n1`: the melting point is 78 °C.

`CCCCCCCCCCCCCCCCCCS(=O)(=O)Cl` came in with a melting point of 58 °C.

On to `c1ccc2cc(P(c3ccc4ccccc4c3)c3ccc4ccccc4c3)ccc2c1`, for which the melting point turned out to be 228 °C.

`CC(=O)NC(=O)NC(C)=O` gave a melting point of 154 °C.

`Cc1cc(C)c(C#N)c(O)n1`: the melting point lay within 285 to 287 °C.

`CCOC(=O)c1cc(C(=O)CBr)on1` returned a melting point of 71 to 73 °C.

In turn, `O=C(O)Cc1c[nH]c2ccccc12` returned a melting point of 169 °C.

With `COc1cc2c(cc1O)C(C)=NCC2`, the melting point was in the range of 182 to 185 °C.
